According to patent US20240327364A1, “THERAPEUTIC TARGETING OF GPR68 TO INDUCE FERROPTOSIS” (University Of Maryland, Baltimore, priority 2023, published 2024):

Key:
[1] = target: T1, GAK (Homo sapiens, UniProt O14976); test: KinomeScan; assay type: binding; conditions: read-out: % Control
T1 construct: purchased DiscoveRx (Fremont, CA)

[2] = target: T2, PK2 (Homo sapiens, UniProt Q8NFJ6); test: GPCR Profiler; assay type: cell-based
T2 construct: host or cells: Chem-1 cells with Gα15

[3] = target: CIT (Homo sapiens, UniProt O14578); test: KinomeScan; assay type: binding; conditions: read-out: % Control
[4] = target: T3, ABL1(Y253F)-phosphorylated (Homo sapiens, UniProt P00519, Y253F); test: KinomeScan; assay type: binding; conditions: read-out: % Control
T3 construct: purchased DiscoveRx

[5] = target: T4, TESK1 (Homo sapiens, UniProt Q15569); test: KinomeScan; assay type: binding; conditions: read-out: % Control
T4 construct: purchased DiscoveRx (Fremont, CA)

[6] = target: T5, PRKR (Homo sapiens, UniProt P19525); test: KinomeScan; assay type: binding; conditions: read-out: % Control
T5 construct: purchased DiscoveRx (Fremont, CA)

[7] = target: T6, CAMKK2 (Homo sapiens, UniProt Q96RR4); test: KinomeScan; assay type: binding; conditions: read-out: % Control
T6 construct: purchased DiscoveRx (KinomeScan service)

[8] = target: T7, APJ (Homo sapiens, UniProt P35414); test: GPCR Profiler; assay type: cell-based
T7 construct: host or cells: Chem-1 cells with promiscuous Gα15

[9] = target: CSF1R (Homo sapiens, UniProt P07333); test: KinomeScan; assay type: binding; conditions: read-out: % Control
[10] = target: T8, FLT3(D835H) (Homo sapiens, UniProt P36888, D835H); test: KinomeScan; assay type: binding; conditions: read-out: % Control
T8 construct: purchased DiscoveRx (Fremont, CA)

[11] = target: T9, CCR7 (Homo sapiens, UniProt P32248); test: GPCR Profiler; assay type: cell-based
T9 construct: host or cells: Chem-1 cells with Gα15

[12] = target: T10, RET (Homo sapiens, UniProt P07949); test: KinomeScan; assay type: binding; conditions: read-out: % Control
T10 construct: purchased DiscoveRx (Fremont, CA)

[13] = target: T11, PAK7 (Homo sapiens, UniProt Q9P286); test: KinomeScan; assay type: binding; conditions: read-out: % Control
T11 construct: purchased DiscoveRx

[14] = target: T12, EGFR(G719C) (Homo sapiens, UniProt P00533, G719C); test: KinomeScan; assay type: binding; conditions: read-out: % Control
T12 construct: purchased DiscoveRx (Fremont, CA), KinomeScan service

[15] = target: T13, PIK3CB (Homo sapiens, UniProt P42338); test: KinomeScan; assay type: binding; conditions: read-out: % Control
T13 construct: purchased DiscoveRx (Fremont, CA)

[16] = target: T14, SIK2 (Homo sapiens, UniProt Q9H0K1); test: KinomeScan; assay type: binding; conditions: read-out: % Control
T14 construct: purchased DiscoveRx (Fremont, CA)

[17] = target: T15, FLT3(D835Y) (Homo sapiens, UniProt P36888, D835Y); test: KinomeScan; assay type: binding; conditions: read-out: % Control
T15 construct: purchased DiscoveRx (Fremont, CA)

[18] = target: T16, ROCK1 (Homo sapiens, UniProt Q13464); test: KinomeScan; assay type: binding; conditions: read-out: % Control
T16 construct: purchased DiscoveRx (Fremont, CA)

[19] = target: T17, XCR1 (Homo sapiens, UniProt P46094); test: GPCR Profiler; assay type: cell-based
T17 construct: host or cells: Chem-1 cells expressing Galpha15

[20] = system: PDX 08-387 cells; test: Cell survival, OGM2 with TMZ; assay type: cell-based, human; conditions: OGM2 and TMZ, cell killing
Procedure: GBM neurospheres and low passage PDX models were plated in 96-well plates at 10,000 cells per well in 50 μL of neural stem cell media. The next day, the cells were treated with OGM2 compounds at the indicated concentrations, in triplicates, by adding an equal volume of medium containing 2× the final concentration of compound. Following 72 hours incubation under standard cell culture conditions, relative cell number was assessed using Cell Titer-Glo Luminescent Cell Viability Assay (Promega™) following the manufacturer's instructions. Luminescence was determined using a Cytation 5 reader and Gen5 software package (BioTek™). For U87 and U138 cell lines, one thousand cells were plated per well in a standard 96-well plate and allowed to attach for 24 hours before exposure to concentrations of vehicle, OGM2, or TMZ. Cells were treated for 72 hours and then stained with DAPI. A 10× magnification lens on a LionheartFX (BioTek™) was used to image the wells, and images were stitched together with Gen5 software (BioTek™). Automated nuclei counting was also done using the Gen5 software. Results reported as percent response relative to DMSO control. […]
Where appropriate, ANOVA, or student's T-test were conducted in PRISM. […] For drug interaction and therapeutic interaction, the coefficient of drug interaction (CDI) was calculated as follows: CDI=AB/(A×B). […]

[21] = target: T18, GPR4 (Homo sapiens, UniProt P46093); test: SRE-luciferase assay, GPR4-transfected HEK293 cells; assay type: cell-based; conditions: OGM2 at 1, 10, or 100 μM
T18 construct: expressed in transfected cells
Procedure: 12-well plates of cells were transfected with 1 μg DNA using Lipofectamine 3000 with sre:luciferase and either the vector backbone, GFP, GPR68, GPR68-GFP, GPR4, or 336X-GFP. After 3 days, these cells were then lysed, and cell extracts were subjected to Steady-Glo luciferase assay (Promega™) according to the manufacturer's instructions. The results were normalized to cell titer, as determined using Cell Titer-Glo luminescence assay (Promega™). For some procedure, the cells were treated in serum-free medium, and were lysed on the third day.
Because GPR4, the paralog with highest homology with GPR68, was not covered in the initial GPCR profiling, whether OGM2 could inhibit GPR4 was tested by examining the effects of OGM2 on acid-induced serum responsive element (SRE) luciferase activity in HEK293 cells transfected with either GPR4 or GPR68. Mild acidification increased luciferase activity in GPR4 and GPR68 transfected cells above that of vector control.
Cas9^GPR68=GPR68 targeted sgRNA and Cas9; CTL=control; MoGPR68=GPR68 morpholino treatment. […] These cells were exposed to acidic media and assayed for luciferase activity as a readout of the receptor activity.

T9 sequence (P32248 25-378, species assumed): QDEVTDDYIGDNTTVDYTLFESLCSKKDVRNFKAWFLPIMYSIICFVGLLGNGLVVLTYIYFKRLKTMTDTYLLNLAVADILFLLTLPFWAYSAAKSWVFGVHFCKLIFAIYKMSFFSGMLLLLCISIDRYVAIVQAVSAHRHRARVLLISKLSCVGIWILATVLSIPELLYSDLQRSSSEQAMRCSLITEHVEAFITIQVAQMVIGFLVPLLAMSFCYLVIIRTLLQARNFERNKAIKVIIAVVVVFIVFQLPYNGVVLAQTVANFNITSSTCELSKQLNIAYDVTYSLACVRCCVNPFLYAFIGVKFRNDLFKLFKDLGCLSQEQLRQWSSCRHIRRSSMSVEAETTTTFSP
T2 sequence (Q8NFJ6 whole entry): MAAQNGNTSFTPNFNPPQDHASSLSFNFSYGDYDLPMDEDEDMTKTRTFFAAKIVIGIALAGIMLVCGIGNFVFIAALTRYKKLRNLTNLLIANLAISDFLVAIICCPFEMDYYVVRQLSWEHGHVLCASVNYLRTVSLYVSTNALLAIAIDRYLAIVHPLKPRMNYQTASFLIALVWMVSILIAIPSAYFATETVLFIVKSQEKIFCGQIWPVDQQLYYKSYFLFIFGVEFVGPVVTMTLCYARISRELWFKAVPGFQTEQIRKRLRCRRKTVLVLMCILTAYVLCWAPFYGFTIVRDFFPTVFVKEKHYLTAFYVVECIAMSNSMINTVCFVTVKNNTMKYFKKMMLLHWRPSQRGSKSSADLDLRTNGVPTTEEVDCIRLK
T17 sequence (P46094 whole entry, species assumed): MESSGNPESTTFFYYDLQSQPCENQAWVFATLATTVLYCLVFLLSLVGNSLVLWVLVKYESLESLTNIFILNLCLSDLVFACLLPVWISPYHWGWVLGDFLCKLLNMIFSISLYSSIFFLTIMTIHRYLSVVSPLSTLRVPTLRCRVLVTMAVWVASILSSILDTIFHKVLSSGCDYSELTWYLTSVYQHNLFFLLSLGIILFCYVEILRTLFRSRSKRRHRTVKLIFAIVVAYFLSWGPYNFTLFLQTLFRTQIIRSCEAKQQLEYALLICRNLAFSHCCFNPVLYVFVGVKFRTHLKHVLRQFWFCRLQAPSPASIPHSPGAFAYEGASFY
T7 sequence (P35414 whole entry, species assumed): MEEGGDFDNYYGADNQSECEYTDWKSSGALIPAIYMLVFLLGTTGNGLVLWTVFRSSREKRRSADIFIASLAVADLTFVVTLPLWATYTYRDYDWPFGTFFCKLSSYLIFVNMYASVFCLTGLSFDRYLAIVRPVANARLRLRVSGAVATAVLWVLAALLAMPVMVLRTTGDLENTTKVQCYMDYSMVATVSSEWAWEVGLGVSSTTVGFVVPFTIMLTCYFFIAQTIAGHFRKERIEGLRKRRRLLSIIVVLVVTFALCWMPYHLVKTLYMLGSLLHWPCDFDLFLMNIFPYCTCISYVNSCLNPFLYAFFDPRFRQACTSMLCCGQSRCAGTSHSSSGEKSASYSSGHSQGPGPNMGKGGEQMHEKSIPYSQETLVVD
T18 sequence (P46093 whole entry): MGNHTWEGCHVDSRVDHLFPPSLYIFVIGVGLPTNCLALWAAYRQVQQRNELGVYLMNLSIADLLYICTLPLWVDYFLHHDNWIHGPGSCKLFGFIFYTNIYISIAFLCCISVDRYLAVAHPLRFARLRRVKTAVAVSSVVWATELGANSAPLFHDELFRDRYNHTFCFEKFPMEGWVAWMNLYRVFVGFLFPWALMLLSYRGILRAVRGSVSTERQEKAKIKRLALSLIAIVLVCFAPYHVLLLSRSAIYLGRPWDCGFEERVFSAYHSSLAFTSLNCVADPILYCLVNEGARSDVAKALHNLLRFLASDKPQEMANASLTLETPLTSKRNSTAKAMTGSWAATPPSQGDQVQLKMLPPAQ
T11 sequence (Q9P286 whole entry): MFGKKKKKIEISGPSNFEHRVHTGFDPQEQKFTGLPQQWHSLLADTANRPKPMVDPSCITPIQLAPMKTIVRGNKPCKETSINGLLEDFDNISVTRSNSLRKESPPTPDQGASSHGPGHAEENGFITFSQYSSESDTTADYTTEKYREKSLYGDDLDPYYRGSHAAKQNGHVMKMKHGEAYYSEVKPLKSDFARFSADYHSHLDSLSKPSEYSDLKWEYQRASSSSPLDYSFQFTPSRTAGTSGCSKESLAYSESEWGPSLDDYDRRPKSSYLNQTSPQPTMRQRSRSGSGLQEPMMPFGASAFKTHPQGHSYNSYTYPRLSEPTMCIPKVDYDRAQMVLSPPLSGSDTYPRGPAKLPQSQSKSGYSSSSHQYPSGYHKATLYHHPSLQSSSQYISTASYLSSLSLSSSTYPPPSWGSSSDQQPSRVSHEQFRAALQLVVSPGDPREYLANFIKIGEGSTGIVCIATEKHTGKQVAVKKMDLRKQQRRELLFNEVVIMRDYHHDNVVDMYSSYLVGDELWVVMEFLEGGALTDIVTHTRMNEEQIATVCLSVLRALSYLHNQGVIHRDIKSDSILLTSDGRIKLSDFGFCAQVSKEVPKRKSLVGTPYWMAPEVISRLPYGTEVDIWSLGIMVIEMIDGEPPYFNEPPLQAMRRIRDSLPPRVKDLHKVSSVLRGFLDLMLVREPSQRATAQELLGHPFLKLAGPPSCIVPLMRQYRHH
T16 sequence (Q13464 whole entry): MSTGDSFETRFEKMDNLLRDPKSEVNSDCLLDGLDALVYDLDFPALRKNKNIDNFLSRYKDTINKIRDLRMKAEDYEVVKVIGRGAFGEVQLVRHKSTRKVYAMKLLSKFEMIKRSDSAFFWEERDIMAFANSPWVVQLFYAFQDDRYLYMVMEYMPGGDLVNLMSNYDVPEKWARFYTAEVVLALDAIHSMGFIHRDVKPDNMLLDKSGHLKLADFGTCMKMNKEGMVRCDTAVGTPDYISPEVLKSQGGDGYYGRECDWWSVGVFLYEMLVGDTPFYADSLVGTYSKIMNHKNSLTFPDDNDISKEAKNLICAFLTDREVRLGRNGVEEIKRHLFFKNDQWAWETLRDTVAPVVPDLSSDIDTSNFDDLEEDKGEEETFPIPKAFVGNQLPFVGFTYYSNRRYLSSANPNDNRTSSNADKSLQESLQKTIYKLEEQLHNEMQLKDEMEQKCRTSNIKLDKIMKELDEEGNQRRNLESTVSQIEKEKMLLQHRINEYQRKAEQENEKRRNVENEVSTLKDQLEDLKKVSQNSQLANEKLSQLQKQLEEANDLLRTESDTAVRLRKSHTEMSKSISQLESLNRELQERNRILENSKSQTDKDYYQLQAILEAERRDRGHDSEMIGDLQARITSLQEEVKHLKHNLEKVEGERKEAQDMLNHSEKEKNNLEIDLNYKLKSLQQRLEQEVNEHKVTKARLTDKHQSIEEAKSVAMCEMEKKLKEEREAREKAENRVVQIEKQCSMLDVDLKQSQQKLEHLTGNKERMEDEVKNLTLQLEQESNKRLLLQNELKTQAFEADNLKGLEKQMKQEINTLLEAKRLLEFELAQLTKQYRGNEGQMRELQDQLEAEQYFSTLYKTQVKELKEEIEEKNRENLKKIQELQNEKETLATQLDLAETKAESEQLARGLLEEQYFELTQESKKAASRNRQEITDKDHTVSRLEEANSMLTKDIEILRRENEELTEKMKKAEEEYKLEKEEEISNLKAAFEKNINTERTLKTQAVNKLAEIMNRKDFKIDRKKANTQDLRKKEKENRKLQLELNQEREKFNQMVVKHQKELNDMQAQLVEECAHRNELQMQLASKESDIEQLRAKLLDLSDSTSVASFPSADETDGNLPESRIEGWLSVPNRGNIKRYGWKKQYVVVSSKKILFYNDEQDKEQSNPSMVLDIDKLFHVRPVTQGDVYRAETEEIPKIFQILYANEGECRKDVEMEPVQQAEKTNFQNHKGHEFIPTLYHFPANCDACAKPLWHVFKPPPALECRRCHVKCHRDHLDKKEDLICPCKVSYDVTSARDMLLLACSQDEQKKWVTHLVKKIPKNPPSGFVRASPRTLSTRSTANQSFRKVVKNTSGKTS
Sequence of CSF1R (P07333 20-972): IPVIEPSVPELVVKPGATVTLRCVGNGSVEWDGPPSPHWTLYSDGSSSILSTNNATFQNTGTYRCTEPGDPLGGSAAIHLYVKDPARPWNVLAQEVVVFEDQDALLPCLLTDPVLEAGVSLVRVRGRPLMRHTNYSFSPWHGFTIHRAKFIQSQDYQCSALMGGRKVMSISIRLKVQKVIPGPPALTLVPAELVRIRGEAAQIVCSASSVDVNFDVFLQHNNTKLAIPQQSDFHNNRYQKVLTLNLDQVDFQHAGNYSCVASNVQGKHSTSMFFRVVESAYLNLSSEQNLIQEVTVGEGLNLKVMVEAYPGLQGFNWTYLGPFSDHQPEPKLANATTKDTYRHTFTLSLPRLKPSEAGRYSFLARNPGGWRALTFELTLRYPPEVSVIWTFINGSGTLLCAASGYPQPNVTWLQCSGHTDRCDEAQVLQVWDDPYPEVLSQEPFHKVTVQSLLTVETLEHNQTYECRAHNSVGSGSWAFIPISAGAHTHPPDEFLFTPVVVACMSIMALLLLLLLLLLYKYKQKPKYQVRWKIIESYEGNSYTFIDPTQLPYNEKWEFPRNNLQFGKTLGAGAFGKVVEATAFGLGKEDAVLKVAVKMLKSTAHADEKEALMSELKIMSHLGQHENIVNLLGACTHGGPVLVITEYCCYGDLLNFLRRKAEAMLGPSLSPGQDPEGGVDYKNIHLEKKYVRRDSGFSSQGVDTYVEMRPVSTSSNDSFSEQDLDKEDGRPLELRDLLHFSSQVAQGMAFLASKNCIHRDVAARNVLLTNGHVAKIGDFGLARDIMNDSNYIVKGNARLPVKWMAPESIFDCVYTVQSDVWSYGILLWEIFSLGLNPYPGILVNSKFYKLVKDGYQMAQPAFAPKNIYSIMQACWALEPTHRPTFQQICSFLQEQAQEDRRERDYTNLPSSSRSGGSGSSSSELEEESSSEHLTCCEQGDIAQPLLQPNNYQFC

## CCc1ccc2c(c1)C1(NN=C(c3cccc4ccccc34)S1)C(=O)N2 (stereo not shown) [OGM1, 5-ethyl-5′-naphthalen-1-ylspiro[1H-indole-3,2′-3H-1,3,4-thiadiazole]-2-one]
[1]
  remaining binding at 10 µM: 64%
[2]; 10 uM
  Antagonism: 7.2
[2]; 12.5 uM
  Agonism: −0.1
[3]
  remaining binding at 10 µM: 94%
[4]
  remaining binding at 10 µM: 80%
[5]
  remaining binding at 10 µM: 100%
[6]
  remaining binding at 10 µM: 59%
[7]
  remaining binding at 10 µM: 89%
[8]; 10 uM
  Antagonism: 7.7
[8]; 12.5 uM
  Agonism: 0.9
[9]
  remaining binding at 10 µM: 78%
[10]
  remaining binding at 10 µM: 100%
[11]; 10 uM
  Antagonism: 4
[11]; 12.5 uM
  Agonism: 0
[12]
  remaining binding at 10 µM: 100%
[13]
  remaining binding at 10 µM: 62%
[14]
  remaining binding at 10 µM: 100%
[15]
  remaining binding at 10 µM: 100%
[16]
  remaining binding at 10 µM: 100%
[17]
  remaining binding at 10 µM: 100%
[18]
  remaining binding at 10 µM: 71%
[19]; 10 uM
  Antagonism: 1.8
[19]; 12.5 uM
  Agonism: 0.1

## CCc1ccc2c(c1)C1(NN=C(c3ccccc3)S1)C(=O)N2 (stereo not shown) [OGM2]
[20]
  coefficient of drug interaction (CDI): < 0.7
[21]
  acid-induced SRE-luciferase activity: not inhibited
